Assay results as given in article PMC8962522, “Direct interaction of TrkA/CD44v3 is essential for NGF-promoted aggressiveness of breast cancer cells” (Journal of Experimental & Clinical Cancer Research : CR, 2022).

Columns and labels:
[1] = Body weight in xenografted SCID mice; format: in vivo; details: 10 mice per group; injections near the tumor
Description: MDA-MB-231 cells (2 × 10^6) were subcutaneously injected into the flanks of six-week-old female SCID mice. One month after injection, the mice were randomized into 2 groups and injected near the tumor with CD44v3 mimetic peptide 4 (P4) or not (control) five times in a 3-day interval. Tumor volume was determined throughout the experiment by measuring the length (l) and width (w) and was calculated as π/6 × l × w × […]. Animals were sacrificed using isoflurane anesthesia when the tumors reached a similar size, and the organs were immediately removed and stored in liquid nitrogen.
Fig. 6 CD44v3 mimetic peptide 4 blocks MDA-MB-231 tumor growth and metastasis. Schematic representation of the experimental setup for MDA-MB-231 tumor growth assessment in SCID mice (A). Body weight (B) and tumor volume (C) were measured following CD44v3 mimetic peptide administration (10 mice per group). Schematic representation of the experimental setup for MDA-MB-231 metastasis assessment in SCID mice (D). Percentage of metastasis-positive lungs, brains and livers (E) after scramble peptide or CD44v3 mimetic peptide 4 treatment (3 mice/group) or (F) after TrkA-H112 mutant treatment (6 mice) compared with HA-TrkA cells (5 mice). ** p < 0.01; ns, nonsignificant. […]

[2] = system: TrkA/CD44v3 complex in SUM159-PT cells; test: PLA TrkA/CD44v3 complex formation in SUM159-PT cells; format: cell-based; details: triple negative; NGF 100 ng/ml
Description: Cells (10,000 cells per well) were grown on acid-washed eight-well glass slides (Thermo Scientific) in the appropriate medium supplemented with 10% FBS for 24 h. After NGF treatment, paraformaldehyde (PAF)-fixed cells were incubated with 4% bovine serum albumin (BSA) or 5% FBS (for 1 h at 20 °C), followed by overnight incubation with primary antibodies (rabbit anti-TrkA or rabbit anti-IgG + mouse anti-pan-CD44; mouse anti-CD44v3; mouse anti-CD44v6; mouse anti-IgG2a; mouse anti-IgG2b; or mouse anti-IgG1). PLA was performed following the manufacturer’s instructions in the assay kit (Duolink PLA; Sigma–Aldrich). To obtain the correct representation of the PLA signal for each condition, 30 fields per condition were observed using a fluorescence microscope (Eclipse TiU; Nikon, Japan). The PLA signals (red dots) were automatically quantified using ImageJ software (with an in-house-developed plug-in). […]
Fig. 7 The TrkA/CD44v3 complex is formed in PR-negative breast cancer cells and tumors. TrkA/CD44v3 complex formation was measured in SUM159-PT (triple negative—i.e., ERα-, PR-, and Her2-) cells (A), T47-D (luminal A—i.e., ERα+, PR+, and Her2-) cells (B), BT-474 (luminal B—ERα+, PR+, and Her2+) cells (C), HCC-1954 (Her2-like—ERα-, PR-, and Her2+) cells (D), and 150 tumor patient samples obtained from US BioMax (HBre-Duc150Sur01) (E, F) using the proximity ligation assay (PLA). […]

Substance | body weight (in words) [1] | effect on TrkA/CD44v3 complex formation (PLA) in SUM159-PT cells [2]
IDDDEDFISST [Peptide 4, mimetic peptide 4 (…) corresponding to the C-terminal region of CD44v3] | did not affect the overall body weight of the mice | 
NGF: recombinant human β-NGF (Alomone Labs, Israel) |  | NGF induction of CD44v3/TrkA complex formation was observed in SUM-159PT (TN) and HCC-1954 (Her2) cells
